The values that follow come from article PMC6315428, “Quantification of α-Thujone and Its Metabolites in Human Urine after Consumption of a Sage Infusion Using Stable Isotope Dilution Assays” (Toxins, 2018).

Details of data set [1]: method as in PMID 20425757. The settings on record: cited from earlier work.
The nature of data set [2]: Human study: urinary excretion of α-thujone and hydroxythujones after consumption of a sage infusion (SIDA, SPME-GC-MS and LC-MS/MS). Type of data set: in vivo, humans. The settings on record: for detection in urine of the volunteers: after consumption of 575.0 µg α-thujone, hydroxythujones after liberation from glucuronides/sulfates; for minimum degree of glucuronidation/sulfation: human urine, calculated from two samples with free hydroxythujones above LOQ; for Total excretion in human urine: 575 µg α-thujone as sage infusion, urine over 24 h; for time after which no additional excretion was observed: after ingestion of sage infusion, all but test person 2 for 7-OH; for maximum concentration in urine: volunteer with the highest dose of 14.3 µg/kg bw, after sage infusion. The procedure:
The protocol of the study was approved by the Ethics Committee of the Faculty of Medicine of the Technische Universität München (1996/07). Written informed consent was obtained from participants before inclusion into the study. Seven healthy, non-smoking volunteers, six Caucasian, participated in the study (3 men and 4 women, mean (±standard deviation [SD]) age 29.7 (±9.21) years, and mean (±SD) body mass index 23.1 (±5.08) kg/m^2). For 24 h prior to the study, the volunteers avoided herbs and spices containing α-thujone for a wash out. A blank urine sample was collected as a control from each volunteer before consumption of the sage infusion. On an empty stomach, the volunteers drank the tea (575 µg α-thujone) within 10 min, and urine was collected at 1, 1.5, 2.5, 3.5 h, and in the time frames of 4.5–6, 6–8, 8–14, 14–24 h after consumption. A defined meal (cheese sandwich) was eaten after 2 h. The samples were stored at 4 °C until preparation for analysis.
The cooled samples were adjusted with HCl to pH 5 and divided into 2 mL aliquots. A solution containing the labeled hydroxythujones (220–430 ng) and β-glucuronidase (5000 units/mL sample; 1 unit liberates […] phenolphthalein from its glucuronide per hour at pH 5.0 at 37 °C) was added, and the mixture stirred at 37 °C for 15 h. Afterwards, the samples were centrifuged (16000 rpm, 4 °C, 15 min) and the supernatant was subjected to solid phase extraction (SPE).
The SPE tubes (ENVI-18, 100 mg, Supelco) were equilibrated with 2 × 1 mL methanol and 2 × 1 mL water. Thereafter, the clear supernatant was loaded on the columns and was slowly passed through without suction. The protein residue was reextracted with water/methanol (95:5, 1 mL), and also loaded on the SPE tubes. The tubes were washed with water/methanol (95:5, 2 × 1 mL) by suction, and then dried carefully. Analytes were slowly eluted with water/acetonitrile (50:50, 500 µL). The extracts were analyzed by LC-MS/MS.
Measurements on the LC-MS/MS were performed using a Shimadzu LC-30A Prominence system (Shimadzu, Kyoto, Japan) interfaced to an LCMS-8050 Triple Quadrupol mass spectrometer (Shimadzu, Kyoto, Japan). A total of 40 µL was injected onto a YMC Pro Pack C4 at 30 °C oven temperature and flow of 0.5 mL/min with water (solvent A) and ACN (solvent B). The gradient was started and held at 5% B for 2 min, raised linearly from 5% B to 30% B during the next 1 min, then raised linearly to 33% within the next 7 min, and to 100% B within the next 1 min. Thereafter, the mobile phase returned to 5% B within 2 min, and the system was equilibrated for 18 min before the next run. The atmospheric pressure chemical ionization (APCI) source was operated in the positive mode under the following conditions: nebulizing gas flow 3 L/min; interface temperature 350 °C; desolvation line temperature 200 °C; drying gas flow 5 L/min. For MS/MS of the hydroxythujones, the mass transitions (m/z precursor ion/ m/z product ion) 151/81 (collision energy = −17 V) and 151/123 (−14 V) for 2-OH, 151/109 (−13 V) and 151/91 (−23 V) for 4-OH, 151/105 (−18 V) and 151/81 (−17 V) for 7-OH, 157/129 (−14 V) and 157/87 (−15 V) for d6-2-OH, […] (−16 V) and 157/91 (−23 V) for d6-4-OH, and 157/129 (−14 V) and 157/99 (−16 V) for d6-7-OH were used.
To determine the hydroxythujone content in urine, calibration functions for 2-OH, 4-OH, and 7-OH were generated with the respective labeled compounds. Calibrators with unlabeled and labeled compounds were prepared in an aqueous solution, in seven different ratios for the unlabeled compounds ranging from 3.1–601.9 µg/mL, while maintaining the labelled compounds constant at concentrations of 450 µg/mL each. The samples were measured by LC-MS/MS. From the relation of area ratios to molar ratios, calibration curves were constructed. […]

On the set-up of data set [3]: method as in PMID 11368559. The settings on record: mouse urine; cited from earlier work.
Data set [4] deals with gamma-aminobutyric acid A (GABAA) receptor. More on the design: method as in PMID 10725394. The settings on record: leads to convulsions and excitations at higher concentrations in animal studies; cited from earlier work.
The conditions of data set [5]: recently deduced; cited from earlier work.
Where [6] appears, read: test person 1, dose/bw 14.3 µg/kg, after glucuronide/sulfate deconjugation.
The mark [7] stands for this setting: test person 2, dose/bw 11.4 µg/kg, after glucuronide/sulfate deconjugation.
[8] abbreviates: test person 3, dose/bw 8.2 µg/kg, after glucuronide/sulfate deconjugation.
[9] abbreviates: test person 4, dose/bw 6.7 µg/kg, after glucuronide/sulfate deconjugation.
Where [10] appears, read: test person 5, dose/bw 8.9 µg/kg, after glucuronide/sulfate deconjugation.
Where [11] appears, read: test person 6, dose/bw 4.6 µg/kg, after glucuronide/sulfate deconjugation.
Where [12] appears, read: test person 7, dose/bw 7.6 µg/kg, after glucuronide/sulfate deconjugation.

Structures are written as SMILES.

Turning to `CC12CCC(CC1)C(C)(C)O2` [1,8-cineole], in data set [1], the “dose recovered as the sum of 2-, 9-, 3- and 7-hydroxy-1,8-cineole” value was 52.5%.
In the case of `CC(C)[C@@]12C[C@@H]1[C@@H](C)C(=O)[C@@H]2O` [2-OH, 2-hydroxythujone], the entries for the “detection in urine of the volunteers” value in data set [2] and in data set [2] (listed as 2-Hydroxythujone) were “not being detectable” and “not present”, respectively. In data set [3], the degree of glucuronidation is given as 85%.
Regarding `CC(C)[C@]12CC(=O)[C@@](C)(O)[C@H]1C2` [4-OH, 4-hydroxythujone], the “detection in urine of the volunteers” value in data set [2] is “detectable”. In addition, the “minimum degree of glucuronidation/sulfation” value in data set [2] was ≥ 66%. Besides, the “Total excretion in human urine” value in data set [2] (setting [6]) was found to be 13.9 µg; in data set [2] (setting [7]) it was 17.9 µg; in data set [2] (setting [8]), 14.6 µg; in data set [2] (setting [9]), 11.8 µg; in data set [2] (setting [10]), 16.5 µg; in data set [2] (setting [11]), 17.0 µg. The “Total excretion in human urine” value in data set [2] (setting [12]) is reported as 26.3 µg. Besides, the “time after which no additional excretion was observed” value in data set [2] (urine) is 7 to 8 h. In data set [3], the degree of glucuronidation is recorded as 61%.
Take `C[C@H]1C(=O)C[C@]2(C(C)(C)O)C[C@H]12` [7-OH, 7-hydroxythujone]: in data set [2], the “detection in urine of the volunteers” value was “detectable”. Besides, in data set [2], the “minimum degree of glucuronidation/sulfation” value is ≥ 55%. Besides, the “Total excretion in human urine” value is recorded as 15.6 µg in data set [2] (setting [6]); 20.9 µg in data set [2] (setting [7]); 8.6 µg in data set [2] (setting [8]); 4.0 µg in data set [2] (setting [9]); 7.8 µg in data set [2] (setting [10]); 6.9 µg in data set [2] (setting [11]). The “Total excretion in human urine” value in data set [2] (setting [12]) came out at 5.9 µg. Further, the “time after which no additional excretion was observed” value in data set [2] (urine) lay within 7 to 8 h. The slower excretion until in data set [2] (urine, test person 2) was determined as 16 h. Besides, the degree of glucuronidation in data set [3] is on record as 2%.
With `CC(C)[C@]12CC(=O)[C@H](C)[C@H]1C2` [thujone], the “effect on GABAA receptor” value in data set [4] was “inhibits”.
With `CC(C)[C@]12CC(=O)[C@H](C)[C@H]1C2` [α-thujone], the “detection in urine of the volunteers” value is “detectable” in data set [2] and “detectable in a low amount” in data set [2] (listed as α-Thujone). Further, the “time after which urine concentration fell under the LODs” value in data set [2] (most volunteers) is on record as 4.5 h. The “Total excretion in human urine” value in data set [2] (test person 1, dose/bw 14.3 µg/kg) is 0.0451 µg; in data set [2] (test person 2, dose/bw 11.4 µg/kg) it was 0.008 µg; in data set [2] (test person 3, dose/bw 8.2 µg/kg), 0.0361 µg; in data set [2] (test person 4, dose/bw 6.7 µg/kg), 0.0163 µg; in data set [2] (test person 5, dose/bw 8.9 µg/kg) it was 0.0107 µg; in data set [2] (test person 6, dose/bw 4.6 µg/kg) it was 0.025 µg. Further, in data set [2] (test person 7, dose/bw 7.6 µg/kg), the “Total excretion in human urine” value is 0.0351 µg. In addition, the “time within which excreted” value in data set [2] (urine, almost all volunteers) is on record as ≤ 8 h. Moreover, the entries for the “maximum concentration in urine” value in data set [2] and in data set [2] (listed as α-Thujone) were 94.3 ng/L and 94 ng/L, respectively. Further, in data set [5], the acceptable daily intake is recorded as 110 µg/kg bw/d.
